# How the values were obtained:
# inbred mouse strains = experiment: Survival of inbred mouse strains injected daily with CBE (GD induction); format: in vivo; settings: for Average survival time: CBE 25 mg/kg/day i.p. daily from P8
# Source text: Mice—Pure inbred mouse strains were obtained from the Jackson laboratories (USA), Harlan UK and Harlan Israel. Specifically, BTBR T^+ Itpr3^tf/J C3H/HeJ, DBA/2J, MRL/MpJ, WSB/EiJ, MOLF/Ei, PWD/PhJ, KK/HiJ, BPL/1J, I/LnJ, BPN/3J, and LP/J were obtained from Jackson; A/J, AKR/J, NZW/LacJ, 129S1/SvImJ were obtained from Harlan laboratories in the UK; and C57BL/6JOlaHsd, BALB/cJ and FVB/NJ were obtained from the Harlan laboratories in Israel. Gba^flox/flox; nestin-Cre mice, a mouse model of GD were generated as described in Vitner et al. Nature Medicine (2014) 20: 204-208; and Enquist, I. B. et al. Proc. Natl. Acad. Sci. USA (2007) 104: 17483-17488. These mice recapitulate many features of human nGD, although their Gba1 deficiency is restricted to neural and macroglial lineages. Mice were maintained under specific pathogen-free conditions and handled according to protocols approved by the Weizmann Institute Animal Care Committee according to international guidelines.
# CBE injections—Conduritol-β-epoxide (CBE) was obtained from Calbiochem Millipore (Darmstadt, Germany). CBE at a dose of 25 mg or 50 mg per kg body weight per day or PBS (control) were administered i.p. to mice daily starting from postnatal day 8 (P8) of age.
# To study the potential of different mouse stains to serve as a reliable model for Type 2/3 GD, 15 different inbred mouse strains were chosen. CBE has been used to induce GD in mice for many years (Mumford et al., 1975), and it was used to generate the first animal model for GD disease. CBE is water soluble and crosses the blood brain barrier. The 15 mice strains chosen have diverse phylogenetic origins and their SNP profile is freely available (FIG. 1A). Mice were daily injected i.p. with 25 mg/kg/day of CBE starting on postnatal day 8 and for the rest of their lives (Vitner et al., 2014). […] The strains could be divided into two groups: mice in the first group were very homogeneous in their behavior; they developed a very aggressive disease with a short life span. The second group of strains presented a much longer life expectancy with a broader spectrum of phenotypes.
# GBA1 = target: T1, GBA1 (Mus musculus, UniProt P17439); experiment: GBA1 activity assay in brain homogenates of treated mice; format: in vivo; settings: mice treated for 10 days with CBE vs PBS; all strains tested; brains harvested P18
# T1 construct: from tissue; host or cells: mouse brain (frozen half-brain homogenate) of inbred strains treated in vivo with PBS, CBE or CBE plus memantine
# T1 sequence (P17439 20-515): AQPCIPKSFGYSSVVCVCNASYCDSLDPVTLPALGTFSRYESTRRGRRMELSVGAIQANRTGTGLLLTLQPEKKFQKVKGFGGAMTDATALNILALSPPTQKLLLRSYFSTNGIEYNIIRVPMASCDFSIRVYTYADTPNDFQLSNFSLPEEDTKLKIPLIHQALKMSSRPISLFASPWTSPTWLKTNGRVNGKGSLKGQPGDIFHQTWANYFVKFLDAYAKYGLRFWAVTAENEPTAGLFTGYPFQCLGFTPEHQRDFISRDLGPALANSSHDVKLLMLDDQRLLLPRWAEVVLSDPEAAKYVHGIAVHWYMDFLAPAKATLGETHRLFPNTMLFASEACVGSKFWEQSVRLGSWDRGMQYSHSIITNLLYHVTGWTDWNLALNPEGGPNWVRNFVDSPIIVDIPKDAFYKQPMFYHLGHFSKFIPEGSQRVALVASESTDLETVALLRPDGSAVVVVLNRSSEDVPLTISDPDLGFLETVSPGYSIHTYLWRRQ
# Experimental: GBA1 activity assay—GBA1 activity was performed as previously described (Farfel-Becker et al. Hum Mol Genet. 2014; 23(4):843-54). Briefly, frozen half-brain samples were sonicated in Mcllvaine's buffer (0.1 M citric acid, pH 4.2, 0.2 M Na2HPO4, 29:21, vol:vol). Tissue homogenates containing 50 μg of protein were incubated at 37° C. with 8 μM C6-NBD-GlcCer (Avanti Polar Lipids, Alabaster, Ala., USA) in a final volume of 25 μl Mcllvaine's buffer for 30 minutes. Lipids were extracted and the lower phase separated by thin layer chromatography using chloroform:methanol:9.8 mM CaCl2 (60:35:8, vol:vol:vol) as the developing solvent. C6-NBD-ceramide was identified with an authentic standard using a Typhoon 9410 variable mode imager and bands were quantified by Image-QuantTL (GE Healthcare, Chalfont St Giles, UK).
# To eliminate the possibility that the phenotypic differences observed in the different mouse strains were caused by differential CBE metabolism in the brain, GBA1 enzymatic activity in mice treated for 10 days with CBE or PBS (control) was measured. […] Overall, the remaining GBA1 activity was 5-10% of the controls (FIG. 3A). There was no correlation between GBA1 activity in the brain and life spans neither in the PBS(R^2=0.126, data not shown) nor CBE conditions (R^2=0.0581, FIG. 3B). In addition, no correlation was found between inhibition of GBA1 activity and life span when evaluated according to strains (R^2=0.0085, data not shown).
# [1] = test system: CD68-positive cells in cortical layer V; experiment: Immunohistochemistry of CD68-positive cells in cortical layer V of the brain; format: in vivo, mouse
# Experimental: Immunohistochemistry—Mice were sacrificed and whole brains were fixed in 4% paraformaldehyde:PBS overnight at 4° C. Tissues were washed in PBS and sectioned with a microtome. Forty micrometer coronal sections were processed free floating in 2% BSA, 0.2% Triton X-100, PBS through all blocking, antibody incubation, and wash steps. Sections were incubated overnight at 4° C. with primary anti rat CD68 (AbD Serotec, Oxford, UK; 1:1000). Following washes, sections were incubated with secondary Cy2-conjugated donkey anti-rat antibody (1:200, Jackson). The presence of CD68-positive cells in cortical layer V of the brain was analyzed using an epifluorescent microscope (Zeiss).
# To verify the results of Example 1, the presence of CD68-positive cells in the cortical layer V of the brain was analyzed in two exemplary strains, AKR/J (average mortality on day 24) and BTBR T^+ITPR3TF/J (100% mortality on day 199).
# rat hippocampal neurons = rat hippocampal neurons treated with CBE; high concentrations of glutamate; in vitro; cited from earlier work
smiles,measurement,setting,value
"O[C@H]1[C@H](O)[C@@H](O)[C@@H]2O[C@@H]2[C@@H]1O [CBE, Conduritol-β-epoxide]",Average survival time,inbred mouse strains; 129S1/SvImJ mice,108 days
same,Average survival time,inbred mouse strains; A/J mice,23 days
same,Average survival time,inbred mouse strains; AKR/J mice,24 days
same,average mortality on day,"inbred mouse strains; AKR/J mice, CBE-treated",24 days
same,Average survival time,inbred mouse strains; BALB/cJ mice,130 days
same,Average survival time,inbred mouse strains; BTBR T+ITPR3TF/J mice,199 days
same,100% mortality on day,"inbred mouse strains; BTBR T+ITPR3TF/J mice, CBE-treated",199 days
same,Average survival time,inbred mouse strains; C3H/HeJ mice,24 days
same,Average survival time,inbred mouse strains; C57BL6/JolaHsd mice,29 days
same,Average survival time,inbred mouse strains; DBA/2J mice,26 days
same,Average survival time,inbred mouse strains; FVB/NJ mice,106 days
same,Average survival time,inbred mouse strains; KK/HlJ mice,143 days
same,Average survival time,inbred mouse strains; MOLF/Ei mice,41 days
same,Average survival time,inbred mouse strains; MRL/MpJ mice,30 days
same,Average survival time,inbred mouse strains; NZW/LacJ mice,84 days
same,Average survival time,inbred mouse strains; PWD/Ph mice,119 days
same,Average survival time,inbred mouse strains; WSB/EiJ mice,38 days
same,remaining cerebral GBA1 activity,GBA1,5-10 % of the controls
same,"brain pathology (CD68-positive cells, cortical layer V)","[1]; AKR/J mice treated with CBE, sacrificed P22",overt brain pathology
same,"brain pathology (CD68-positive cells, cortical layer V) and mortality","[1]; BTBR T+ITPR3TF/J mice treated with CBE, sacrificed P208",less sensitive to CBE both in terms of mortality and brain pathology
same,sensitivity of neurons to glutamate toxicity,rat hippocampal neurons,more sensitive to the toxic effects of high concentrations of glutamate
